Assay results published in patent US11980607B2, “Methods of treating malignant lymphoproliferative disorders” (Actuate Therapeutics Inc., priority 2018, dated 2024).

How the values were obtained:
[1] = test system: NF-κB, DNA damage and apoptotic pathways in lymphoma cell lines; experiment: Luminex analysis of NF-κB, DNA damage and apoptotic pathway signaling; type: cell-based; details: 1 μM, 48 hours
Description: Signaling changes in NF-κB [MILLIPLEXMAP NF-κB Signaling Magnetic Bead Kit 6-plex Kit, EMD Millipore, analytes: c-MYC, FADD (Ser194), IκBα (Ser32), IKKα/β (Ser177/Ser181), NF-κB (Ser536), TNFR1], DNA damage [MILLIPLEX MAP DNA Damage/Genotoxicity Magnetic Bead Panel, EMD Millipore, analytes: ATR (total), Chk1 (Ser345), Chk2 (Thr68), H2A.X (Ser139), MDM2 (total), p21 (Total), p53 (Ser15)], and apoptotic pathways [Bio-plex pro RBM apoptosis panel 2 and 3, Bio-Rad, analytes: Bad, Bax/Bcl-2 dimer, Bcl-xL, Bim, Mcl-1, active caspase 3, Bcl-xL/Bak dimer, Mcl-1/Bak dimer, survivin] associated with 1 μM 9-ING-41 treatment for 48 hours as compared to no-treatment controls were determined using Luminex multiplex technology with a FLEXMAP 3D instrument, as per manufacturer instructions. Cells were lysed in MILLIPLEX MAP Lysis buffer supplemented with protease inhibitor cocktail (Sigma) and phosphatase inhibitor cocktails 2 and 3 (Sigma) and, after BCA protein determination, 15 μg of protein was added to each well. All samples were run in duplicate and changes in MFI or absolute quantity between 9-ING-41-treated cells and nontreated control were analyzed, and an unpaired t-test was performed to determine statistical significance.

[2] = test system: primary lymphoma cells freshly isolated from patients; experiment: Proliferation of primary lymphoma patient cells; type: cell-based, human; details: 5 patient samples (MCL, high grade B-cell lymphoma, follicular 3B, DLBCL, angioimmunoblastic TCL)
Description: (A) Immunoblot of GSK-3α and GSK-3β proteins showing overexpression in patient samples vs normal B-cell control. P1: MCL; P2: High grade B-cell lymphoma; P3: follicular large B-cell lymphoma 3B; P4: DLBCL; P5: angioimmunoblastic T-cell lymphoma. (B) 9-ING-41 inhibited proliferation in all 5 patient samples. (C) Immunohistochemistry staining of GSK-3β on paraffin tissue sections of patients with various lymphoma. Representative images show the spectrum of GSK-3β (in brown) overexpression in different lymphoma samples. […] Images were collected under 40× magnification.
Lymphoma tissue samples were obtained from patients after written informed consent. This Lymphoma SPORE biospecimens protocol was approved by the Mayo Clinic Institutional Review Board in accordance with the Declaration of Helsinki. All primary patient samples were biopsy tissues from spleen or lymph nodes. Fresh tissue samples were gently dissociated into cell suspension and subjected to Ficoll-Paque density gradient centrifugation. Primary lymphoma cells were then used directly for proliferation assay, or stored in −80° C. for Western analysis later after lymphoma diagnosis confirmation.
Cells were seeded at 1×10^4 cells/well in 96 well plates, and incubated with 9-ING-41 at indicated concentrations for 48 hours followed by pulsing with tritium labeled thymidine for overnight before being analyzed for thymidine uptake. […]

Granta-519 = experiment: Apoptosis assay (Annexin V/PI), cell survival; type: cell-based; details: Homo sapiens; Granta-519 (MCL), 48 hours
Procedure: (§1) Cells were seeded at 5×10^5 cells/well in 24 well plates, and incubated with 9-ING-41 at indicated concentrations for 48 hours. The cells were then stained with FITC conjugated Annexin V (Life Technologies) and Propidium Iodide followed by analysis on a BD FACS Calibur flow cytometer.
(§2) The IC50S of 9-ING-41 on cell survival and proliferation was calculated using an on-line IC50 calculation tool (https://www.aatbio.com/tools/ic50-calculator/).
(§3) Given that both GSK3α and GSK3β are overexpressed in lymphoma cells, and that both enzymes are implicated in multiple signaling pathways critical for cell functions, whether GSK3α and GSK3β are functionally supporting the survival and proliferation of lymphoma cells was examined. […] The inhibitory concentrations of 9-ING-41 at half of the maximal effect (IC50) on cell survival of various lymphoma cell lines was calculated (Table 1).

SU-DHL6 = experiment: Apoptosis assay (Annexin V/PI), cell survival; type: cell-based; details: Homo sapiens, SU-DHL-6; SU-DHL6 (DLBCL), 48 hours
Procedure: as §1, §2, §3

OCI-LY19 = experiment: Apoptosis assay (Annexin V/PI), cell survival; type: cell-based; details: Homo sapiens; OCI-LY19 (DLBCL), 48 hours
Procedure: as §1, §2, §3

MyLa = experiment: Apoptosis assay (Annexin V/PI), cell survival; type: cell-based; details: Homo sapiens; MyLa (TCL), 48 hours
Procedure: as §1, §2, §3

Q: Which results are given for `Cn1cc(C2=C(c3coc4ccc(F)cc34)C(=O)NC2=O)c2cc3c(cc21)OCO3` [9-ING-41, 3-(5-Fluorobenzofuran-3-yl)-4-(5-methyl-5H-[1,3]dioxolo[4,5-f]indol-7-yl)pyrrole-2,5-dione]?
A: Total c-MYC levels ([1]; Karpas 422 and TMD8 cell lines): significant reduction; DNA damage signaling, p-H2A.X (Ser139) ([1]; SUDHL-4 and Karpas 422 cell lines, p<0.05): increased; phospho-p53 (Ser15) ([1]; SUDHL-4 and TMD8 cells): significant increase; Reduction in Bcl-x1/Bak dimer expression ([1]; all cell lines except TMD8, p<0.05): ~1.5 fold; Reduction in Mcl-1/Bak dimers ([1]; all lymphoma cell lines except KPUM-UH1, p<0.05): ~2 fold; Active caspase 3 ([1]; all lymphoma cell lines except TMD8): increase in active caspase 3; Reduction in survivin ([1]; all lymphoma cell lines except TMD8, p<0.05): ~2 fold; Antiproliferative effect in primary patient cells [2]: similarly responsive to the antiproliferative effects; IC50 (Granta-519): 0.77 µM; IC50 (SU-DHL6): 1.58 µM; IC50 (OCI-LY19): 2.21 µM; IC50 (MyLa): 0.69 µM
